Consider five compounds from patent publication US20020061927A1, “Insulin receptor activators for the treatment of metabolic disorders induced by treatment with HIV protease inhibitors” (priority 2000, published 2002).

Structures are written as SMILES.

For one assay, the system named is 3T3 L1 adipocytes. The assay can be described thus: Reversal of HIV protease inhibitor block of glucose transport in cells (14C-2-deoxy-D-glucose uptake). Format: cell-based. The following applies: for effect of HIV protease inhibitor drug on glucose transport activity: 3T3 L1 adipocytes; for glucose transport: 3T3 L1 cells; for effect on glucose transport activity inhibited by HIV protease inhibitor drugs: 3T3 L1 adipocytes in presence of Ritonavir, Indinavir or Amprenavir. As for the experimental part:
Stimulation of the insulin receptor leads to the transport of glucose from the blood into cells, thus modulating blood glucose levels. 3T3 L1 fibroblasts (ATCC) were grown in Dulbecco's modified Eagle's medium (DMEM) with 10% fetal bovine serum (FBS). The cells were plated at a density of 3×10^4 cells/ml in 96 well plates (0.1 ml/well). Two days after confluence was reached, the cells were treated for 3 days with 0.5 mM isobutylmethylxanthine (IBMX), 1 μM dexamethasone, and 1.7 μM insulin. The cells were then transferred to DMEM with 10% FBS and supplemented with 1.7 μM insulin for 2 more days. The cells were maintained in DMEM with 10% FBS for an additional 4 days. Finally, the cells were serum starved overnight in 0.1% bovine serum albumin (BSA) in DMEM.
The following day, the cells were pretreated with Indinavir, Ritonavir, or Amprenavir (at the concentrations indicated in the Tables below) in a buffer containing 150 mM NaCl, 1.7 mM KCl, 0.9 mM CaCl2 1.47 mM K2HPO4 (pH 7.4) and 0.01% BSA for 6 minutes followed by treatment with a compound described in this patent (56 μM compound 1; 20 μM compound 2) with or without 100 nM insulin for 30 minutes. Following incubation, the cells were labeled with ^14C-labeled 2-deoxy-D-glucose (0.5 μCi/ml) and incubation was continued for additional 30 minutes at 37° C. The cells were then washed 3 times with ice-cold PBS/20 mM glucose and lysed in 100 μl of lysis buffer (50 mM Hepes pH 7.6, 1% Triton X-100) for 30 minutes at room temperature. Radioactivity in the lysate was quantified by scintillation counting.
Once ^14C-2-deoxy-D-glucose is transported into the cells, it is not released. Glucose transport is, therefore, proportional to the amount of radioactivity in the lysate.

The next assay deals with male CD rats. The assay can be described thus: Reversal of protease inhibitor-mediated insulin resistance in normal rats (oral glucose challenge). The settings on record: indinavir sulfate plus compound 1, oral. Format: in vivo, rat. How it is done: Seven to nine week-old male CD rats (Charles River Laboratories, Hollister, Calif.) were used to study the effects of protease inhibitor and compound 1. Animals were kept in a 12 h/12 h light/dark cycle and were fasted overnight.
Indinavir sulfate was prepared in water, and compound 1 was prepared in PBS. Seven animals (average weight 300 grams) were used in each treatment condition. The animals were treated with vehicle or indinavir sulfate or indinavir sulfate plus compound 1 by oral administration. After 30 min, the animals were challenged with oral glucose load (2 g/kg), and blood glucose measurements were taken at 0 min, 10 min, 20 min, 30 min, 60 min, 90 min and 120 min by tail bleeding. Glucose measurements were made with a Glucometer and Glucose strips (Bayer).
The blood glucose levels are reported as the percentage of the values before challenge (“zero time” values).
Blood samples obtained from 0 min and 30 min time points were analysed for plasma insulin levels by ELISA (ALPCO Diagnostics, Windham, N.H.).

The mark [1] stands for this setting: 5 μM Amprenavir pretreatment, 56 μM compound 1 / 20 μM compound 2.
The mark [2] stands for this setting: 5 μM Indinavir pretreatment, 56 μM compound 1 / 20 μM compound 2.
The mark [3] stands for this setting: 10 μM Amprenavir pretreatment, 56 μM compound 1 / 20 μM compound 2.
Where [4] appears, read: 10 μM Indinavir pretreatment, 56 μM compound 1 / 20 μM compound 2.
Setting [5] is: 20 μM Indinavir pretreatment, 56 μM compound 1 / 20 μM compound 2.

Take `CC(C)CN(C[C@@H](O)[C@H](Cc1ccccc1)NC(=O)O[C@H]1CCOC1)S(=O)(=O)c1ccc(N)cc1` [Amprenavir, reference compound]: the “effect of HIV protease inhibitor drug on glucose transport activity” value in the assay with 3T3 L1 adipocytes was “inhibited”.
As to `O=C(Nc1ccc2c(O)cc(S(=O)(=O)Nc3ccc(Cl)c(S(=O)(=O)O)c3)cc2c1)Nc1ccc2c(O)cc(S(=O)(=O)Nc3ccc(Cl)c(S(=O)(=O)O)c3)cc2c1` [Compound 1], the glucose transport with 3T3 L1 adipocytes (setting [1]) is 1.83 fold over fold over 50 nM insulin; in the assay with 3T3 L1 adipocytes (setting [2]), 1.34 fold over fold over 50 nM insulin; in the assay with 3T3 L1 adipocytes (5 μM Ritonavir pretreatment, 56 μM compound 1), 1.32 foldover fold over 50 nM insulin; in the assay with 3T3 L1 adipocytes (setting [3]) it was 1.53 fold over fold over 50 nM insulin; in the assay on 3T3 L1 adipocytes (setting [4]), 1.16 fold over fold over 50 nM insulin; in the assay with 3T3 L1 adipocytes (20 μM Amprenavir pretreatment, 56 μM compound 1) it was 1.21 fold over fold over 50 nM insulin. The glucose transport with 3T3 L1 adipocytes (setting [5]) is given as 1.12 fold over fold over 50 nM insulin. The “effect on glucose transport activity inhibited by HIV protease inhibitor drugs” value in the assay on 3T3 L1 adipocytes is listed as “increase the glucose transport activity”. Also, the “protease inhibitor-mediated insulin resistance” value with male CD rats is listed as “Reversal of Protease Inhibitor-mediated Insulin Resistance”.
Take `O=C(Nc1ccc2c(O)c(/N=N/c3ccc(/N=N/c4ccc(S(=O)(=O)O)cc4)cc3S(=O)(=O)O)c(S(=O)(=O)O)cc2c1)Nc1ccc2c(O)cc(S(=O)(=O)O)c(N=Nc3ccc(/N=N/c4ccc(S(=O)(=O)O)cc4)cc3S(=O)(=O)O)c2c1` [Compound 2]: the glucose transport in the assay with 3T3 L1 adipocytes (setting [1]) is reported as 1.25 foldover fold over 50 nM insulin; in the assay with 3T3 L1 adipocytes (setting [2]), 1.38 fold over fold over 50 nM insulin; in the assay with 3T3 L1 adipocytes (setting [3]) it was 1.07 foldover fold over 50 nM insulin; in the assay with 3T3 L1 adipocytes (setting [4]), 1.25 fold over fold over 50 nM insulin; with 3T3 L1 adipocytes (setting [5]) it was 1.02 fold over fold over 50 nM insulin. Also, the “effect on glucose transport activity inhibited by HIV protease inhibitor drugs” value in the assay with 3T3 L1 adipocytes is recorded as “increase the glucose transport activity”.
In the case of `CC(C)(C)NC(=O)[C@@H]1CN(Cc2cccnc2)CCN1C[C@@H](O)C[C@@H](Cc1ccccc1)C(=O)N[C@H]1c2ccccc2C[C@H]1O` [Indinavir, reference compound], in the assay on 3T3 L1 adipocytes, the “effect of HIV protease inhibitor drug on glucose transport activity” value is given as “inhibited”.
On the same count and under the same terms, the value for `CC(C)c1nc(CN(C)C(=O)N[C@H](C(=O)N[C@@H](Cc2ccccc2)C[C@H](O)[C@H](Cc2ccccc2)NC(=O)OCc2cncs2)C(C)C)cs1` [Ritonavir, reference compound] was “inhibited”.
